Data published in US20020090402A1, “Pharmaceutical composition against type I allergy and the preparation thereof” (priority 2000, published 2002).

Test system: passive skin sensitization for the rats
Assay: anti-allergic pharmacodynamics: passive skin sensitization of rats (anti-trichosanthes serum, Evans blue, 620 nm colorimetry)
Type: in vivo, Wistar male rats
Settings: rat, 5 mg/Kg IV one minute before second sensitization
Excerpt: Research of anti-allergic pharmacodynamics of the pharmaceutical composition of the present invention
Wistar male rats with body weight of 100˜120 g were used, which were provided by the Experimental Animal Center of the Chinese Academy of Medical Sciences.
1. Tablets of this pharmaceutical composition obtained from Example 1 of this invention. It was made into a suspension with 0.5%CMC-Na.
2. Positive contrast medicament: disodium chromoglycate (produced by Shanghai Pharmaceutical Factory No. 5). It is dissolved with normal saline when it is used.
After the rats were divided in groups at random, they were lavaged and dosed with the above-mentioned pharmaceutical composition of this invention according to 6 g/Kg and 3 g/Kg, once a day, continuously for 10 days. After hair on their backs of all groups of animals was removed, said animals were sensitized for the first time with hypodermic injection with anti-trichosanthes serum. At the same time, the dosing groups took the pharmaceutical composition according to 6 g/Kg, two hours before the second sensitization. The positive contrast groups were dosed with IV of disodium chromoglycate in accordance of 5 mg/Kg, one minute before the second sensitization was made. All groups of animals were given with IV of 1% EVANSLAN (including trichosanthes protein of 1 mg/ml) in accordance with 1 mg/Kg for the second sensitization. […]

## O=C([O-])c1cc(=O)c2c(OCC(O)COc3cccc4oc(C(=O)[O-])cc(=O)c34)cccc2o1.[Na+].[Na+] [Positive contrast, disodium chromoglycate]
  Inhibition rate: 78.2%
620 nm
  OD value (X ± SD): 0.19 ± 0.11
